# Reference: ChEMBL document CHEMBL3046339, “Insecticidal activity of Maytenus species (Celastraceae) nortriterpene quinone methides against codling moth, Cydia pomonella (L.) (Lepidoptera: tortricidae)” (2000)
# Columns and labels:
# Type in all cases: functional
# [1] = tested on: Cydia pomonella; assay: Insecticidal activity against Cydia pomonella (codling moth) at 80 mg/kg assessed as growth regulation measured as number of head capsules of larvae after 10 days of continuous exposure Rvb = (1.5 +/- 0.2%)
# [2] = tested on: Cydia pomonella; assay: Insecticidal activity against Cydia pomonella (codling moth) at 20 mg/kg assessed as growth regulation measured as number of head capsules of larvae after 10 days of continuous exposure Rvb = (1.5 +/- 0.2%)
# [3] = tested on: Cydia pomonella; assay: Insecticidal activity against Cydia pomonella (codling moth) at 40 mg/kg assessed as growth regulation measured as number of head capsules of larvae after 10 days of continuous exposure Rvb = (1.5 +/- 0.2%)
# [4] = tested on: Cydia pomonella; assay: Antifeedant activity against Cydia pomonella (codling moth) at 80 mg/kg diet topically measured after 10 days of continuous exposure (reference value: 6.7 +/- 6.7%)
# [5] = tested on: Cydia pomonella; assay: Antifeedant activity against Cydia pomonella (codling moth) at 40 mg/kg diet topically measured after 10 days of continuous exposure (reference value: 6.7 +/- 6.7%)
# [6] = tested on: Cydia pomonella; assay: Antifeedant activity against Cydia pomonella (codling moth) at 20 mg/kg diet topically measured after 10 days of continuous exposure (reference value: 6.7 +/- 6.7%)
# [7] = tested on: Cydia pomonella; assay: Antifeedant activity against Cydia pomonella (codling moth) at 80 mg/kg diet topically measured after 5 days of continuous exposure (reference value: 6.7 +/- 6.7%)
# [8] = tested on: Cydia pomonella; assay: Antifeedant activity against Cydia pomonella (codling moth) at 40 mg/kg diet topically measured after 5 days of continuous exposure (reference value: 6.7 +/- 6.7%)
# [9] = tested on: Cydia pomonella; assay: Antifeedant activity against Cydia pomonella (codling moth) at 20 mg/kg diet topically measured after 5 days of continuous exposure (reference value: 6.7 +/- 6.7%)
# [10] = tested on: Cydia pomonella; assay: Insecticidal activity against Cydia pomonella (codling moth) assessed as mortality at 80 mg/kg diet topically measured after 10 days of continuous exposure (reference value: 3.3 +/- 3.3%); details: topical, 240 h
# [11] = tested on: Cydia pomonella; assay: Insecticidal activity against Cydia pomonella (codling moth) assessed as mortality at 20 mg/kg diet topically measured after 10 days of continuous exposure (reference value: 3.3 +/- 3.3%); details: topical, 240 h
# [12] = tested on: Cydia pomonella; assay: Insecticidal activity against Cydia pomonella (codling moth) assessed as mortality at 40 mg/kg diet topically measured after 10 days of continuous exposure (reference value: 3.3 +/- 3.3%); details: topical, 240 h
# [13] = tested on: Cydia pomonella; assay: Insecticidal activity against Cydia pomonella (codling moth) at 40 mg/kg assessed as growth regulation measured as number of head capsules of larvae after 5 days of continuous exposure (reference value: 0.2 +/- 0.2%)
# [14] = tested on: Cydia pomonella; assay: Insecticidal activity against Cydia pomonella (codling moth) at 20 mg/kg assessed as growth regulation measured as number of head capsules of larvae after 5 days of continuous exposure (reference value: 0.2 +/- 0.2%)
# [15] = tested on: Cydia pomonella; assay: Insecticidal activity against Cydia pomonella (codling moth) assessed as mortality at 80 mg/kg diet topically measured after 5 days of continuous exposure (reference value: 0%); details: topical, 120 h
# [16] = tested on: Cydia pomonella; assay: Insecticidal activity against Cydia pomonella (codling moth) assessed as mortality at 40 mg/kg diet topically measured after 5 days of continuous exposure (reference value: 0%); details: topical, 120 h
# [17] = tested on: Cydia pomonella; assay: Insecticidal activity against Cydia pomonella (codling moth) assessed as mortality at 20 mg/kg diet topically measured after 5 days of continuous exposure (reference value: 0%); details: topical, 120 h
# [18] = tested on: Cydia pomonella; assay: Insecticidal activity against Cydia pomonella (codling moth) at 80 mg/kg assessed as growth regulation measured as number of head capsules of larvae after 5 days of continuous exposure (reference value: 0.2 +/- 0.2%)
# [19] = tested on: Cydia pomonella; assay: Insecticidal activity against Cydia pomonella (codling moth) at 20 mg/kg assessed as growth regulation measured as number of head capsules of larvae after 10 days of continuous exposure (reference value: 1.3 +/- 0.3%)
# [20] = tested on: Cydia pomonella; assay: Insecticidal activity against Cydia pomonella (codling moth) at 2 mg/kg assessed as growth regulation measured as number of head capsules of larvae after 10 days of continuous exposure (reference value: 1.3 +/- 0.3%)
# [21] = tested on: Cydia pomonella; assay: Insecticidal activity against Cydia pomonella (codling moth) at 2 mg/kg assessed as growth regulation measured as number of head capsules of larvae after 5 days of continuous exposure (reference value: 0.3 +/- 0.3%)
# [22] = tested on: Cydia pomonella; assay: Insecticidal activity against Cydia pomonella (codling moth) at 20 mg/kg assessed as growth regulation measured as number of head capsules of larvae after 5 days of continuous exposure (reference value: 0.3 +/- 0.3%)
# [23] = tested on: Cydia pomonella; assay: Antifeedant activity against Cydia pomonella (codling moth) at 20 mg/kg diet topically measured after 10 days of continuous exposure (reference value: 30 +/-20.9%)
# [24] = tested on: Cydia pomonella; assay: Antifeedant activity against Cydia pomonella (codling moth) at 2 mg/kg diet topically measured after 10 days of continuous exposure (reference value: 30 +/-20.9%)
# [25] = tested on: Cydia pomonella; assay: Antifeedant activity against Cydia pomonella (codling moth) at 20 mg/kg diet topically measured after 5 days of continuous exposure (reference value: 30 +/-20.9%)
# [26] = tested on: Cydia pomonella; assay: Antifeedant activity against Cydia pomonella (codling moth) at 2 mg/kg diet topically measured after 5 days of continuous exposure (reference value: 30 +/-20.9%)
# [27] = tested on: Cydia pomonella; assay: Insecticidal activity against Cydia pomonella (codling moth) assessed as mortality at 2 mg/kg diet topically measured after 10 days of continuous exposure (reference value: 43.3 +/- 26%); details: topical, 240 h
# [28] = tested on: Cydia pomonella; assay: Insecticidal activity against Cydia pomonella (codling moth) assessed as mortality at 20 mg/kg diet topically measured after 10 days of continuous exposure (reference value: 43.3 +/- 26%); details: topical, 240 h
# [29] = tested on: Cydia pomonella; assay: Insecticidal activity against Cydia pomonella (codling moth) assessed as mortality at 20 mg/kg diet topically measured after 5 days of continuous exposure (reference value: 23.3 +/- 18.5%); details: topical, 120 h
# [30] = tested on: Cydia pomonella; assay: Insecticidal activity against Cydia pomonella (codling moth) assessed as mortality at 2 mg/kg diet topically measured after 5 days of continuous exposure (reference value: 23.3 +/- 18.5%); details: topical, 120 h
smiles,measurement,setting,value
COC(=O)[C@]1(C)CC[C@]2(C)CC[C@]3(C)C4=CC=C5C(=CC(=O)C(O)=C5C)[C@]4(C)CC[C@@]3(C)[C@@H]2C1 [PRISTIMERIN],Activity,[1],0
same,Activity,[2],0
same,Activity,[3],0
same,Activity,[4],90%
same,Activity,[5],83.3%
same,Activity,[6],93.3%
same,Activity,[7],90%
same,Activity,[8],83.3%
same,Activity,[9],96.7%
same,mortality at 80 mg/kg,[10],100%
same,mortality at 20 mg/kg,[11],60%
same,mortality at 40 mg/kg,[12],60%
same,Activity,[13],0
same,Activity,[14],0
same,mortality at 80 mg/kg,[15],90%
same,mortality at 40 mg/kg,[16],33.3%
same,mortality at 20 mg/kg,[17],20%
same,Activity,[18],0
CC1=C(O)C(=O)C=C2C1=CC=C1[C@@]2(C)CC[C@@]2(C)[C@@H]3C[C@@H](C)C(=O)C[C@]3(C)CC[C@]12C [TINGENONE],Activity,[1],0
same,Activity,[2],3
same,Activity,[3],1.4
same,Activity,[4],93.3%
same,Activity,[5],3.3%
same,Activity,[6],0%
same,Activity,[7],100%
same,Activity,[8],10%
same,Activity,[9],0%
same,mortality at 80 mg/kg,[10],23.3%
same,mortality at 20 mg/kg,[11],0%
same,mortality at 40 mg/kg,[12],10%
same,Activity,[13],0.3
same,Activity,[14],0.7
same,mortality at 80 mg/kg,[15],13.3%
same,mortality at 40 mg/kg,[16],3.3%
same,mortality at 20 mg/kg,[17],0%
same,Activity,[18],0
C/C=C(\C)C(=O)O[C@H]1C[C@@H](OC(C)=O)[C@@]2(C(=O)OC)CO[C@H]3[C@@H](O)[C@@](C)([C@]45O[C@@]4(C)[C@@H]4C[C@H]5O[C@@H]5OC=C[C@@]54O)[C@H]4[C@]1(CO[C@]4(O)C(=O)OC)[C@@H]32 [AZADIRACHTIN A],Activity,[19],0
same,Activity,[20],0.3
same,Activity,[21],0
same,Activity,[22],0
same,Activity,[23],100%
same,Activity,[24],70%
same,Activity,[25],100%
same,Activity,[26],76.7%
same,mortality at 2 mg/kg,[27],66.7%
same,mortality at 20 mg/kg,[28],100%
same,mortality at 20 mg/kg,[29],100%
same,mortality at 2 mg/kg,[30],50%
